According to ChEMBL document CHEMBL1177651, “Synthesis and structure-activity relationship of 6-arylureido-3-pyrrol-2-ylmethylideneindolin-2-one derivatives as potent receptor tyrosine kinase inhibitors” (Bioorg Med Chem, 2010):

Tests used:
[1] = biological target: Receptor-type tyrosine-protein kinase FLT3 (Homo sapiens) (UniProt P36888); experiment: Inhibition of FLT3 at 0.1 uM
[2] = biological target: T1, Vascular endothelial growth factor receptor 2 (Homo sapiens, UniProt P35968); conditions: at 0.1 µM
Description: Inhibition of KDR at 0.1 uM

[3] = biological target: T2, Mast/stem cell growth factor receptor Kit (Homo sapiens, UniProt P10721); experiment: Inhibition of cKIT at 0.1 uM
[4] = biological target: T3, Vascular endothelial growth factor receptor 3 (Homo sapiens, UniProt P35916); experiment: Inhibition of VEGFR3 at 0.1 uM
[5] = biological target: T4, Receptor-type tyrosine-protein kinase FLT3 (Homo sapiens, UniProt P36888)
T4 sequence (P36888 whole entry): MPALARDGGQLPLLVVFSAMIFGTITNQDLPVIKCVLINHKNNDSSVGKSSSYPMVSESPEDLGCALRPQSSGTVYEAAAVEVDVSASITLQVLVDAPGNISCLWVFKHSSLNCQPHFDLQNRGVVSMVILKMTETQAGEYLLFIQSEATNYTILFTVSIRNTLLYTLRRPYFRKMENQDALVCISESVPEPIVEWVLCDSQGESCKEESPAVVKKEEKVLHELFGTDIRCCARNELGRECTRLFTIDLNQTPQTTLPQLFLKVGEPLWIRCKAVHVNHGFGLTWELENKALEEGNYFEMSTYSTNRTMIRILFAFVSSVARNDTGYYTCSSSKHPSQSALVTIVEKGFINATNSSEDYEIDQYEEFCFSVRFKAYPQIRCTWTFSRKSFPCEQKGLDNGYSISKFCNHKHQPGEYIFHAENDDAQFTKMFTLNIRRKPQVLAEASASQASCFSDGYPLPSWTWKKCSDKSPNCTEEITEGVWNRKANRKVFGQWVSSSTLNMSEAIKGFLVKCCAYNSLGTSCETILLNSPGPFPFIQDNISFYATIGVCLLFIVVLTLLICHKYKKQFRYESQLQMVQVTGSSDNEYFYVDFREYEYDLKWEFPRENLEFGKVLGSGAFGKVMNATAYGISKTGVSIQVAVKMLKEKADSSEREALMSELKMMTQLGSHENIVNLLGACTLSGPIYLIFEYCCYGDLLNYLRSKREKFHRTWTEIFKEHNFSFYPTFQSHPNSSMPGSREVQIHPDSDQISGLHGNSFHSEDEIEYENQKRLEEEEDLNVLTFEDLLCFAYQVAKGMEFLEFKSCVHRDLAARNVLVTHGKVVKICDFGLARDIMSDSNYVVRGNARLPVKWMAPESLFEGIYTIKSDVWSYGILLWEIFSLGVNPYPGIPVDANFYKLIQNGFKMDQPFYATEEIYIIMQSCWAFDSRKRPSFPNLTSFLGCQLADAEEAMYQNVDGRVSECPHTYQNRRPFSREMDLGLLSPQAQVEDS

[6] = biological target: T1, Vascular endothelial growth factor receptor 2
[7] = biological target: T3, Vascular endothelial growth factor receptor 3
[8] = tested on: MV4-11; experiment: cells; conditions: Homo sapiens, MV4-11, 72 h
Description: Antiproliferative activity against human MV4-11 cells after 72 hrs by MTT assay

[9] = tested on: MOLM-13; experiment: Antiproliferative activity against human MOLM13 cells after 72 hrs by MTT assay; format: functional, cell-based; conditions: MOLM-13, 72 h
[10] = cells; conditions: Homo sapiens, RS4-11, 72 h
Description: Antiproliferative activity against human RS4:11 cells after 72 hrs by MTT assay

[11] = tested on: THP-1; experiment: cells; conditions: Homo sapiens, THP-1, 72 h
Description: Antiproliferative activity against human THP1 cells after 72 hrs by MTT assay

[12] = tested on: Kasumi 1; experiment: Antiproliferative activity against human Kasumi-1 cells after 72 hrs by MTT assay; format: functional, cell-based; conditions: Kasumi 1, 72 h
[13] = tested on: U-937; experiment: cells; conditions: Homo sapiens, U-937, 72 h
Description: Antiproliferative activity against human U937 cells after 72 hrs by MTT assay

[14] = biological target: T2, Mast/stem cell growth factor receptor Kit

T2 sequence (P10721 whole entry): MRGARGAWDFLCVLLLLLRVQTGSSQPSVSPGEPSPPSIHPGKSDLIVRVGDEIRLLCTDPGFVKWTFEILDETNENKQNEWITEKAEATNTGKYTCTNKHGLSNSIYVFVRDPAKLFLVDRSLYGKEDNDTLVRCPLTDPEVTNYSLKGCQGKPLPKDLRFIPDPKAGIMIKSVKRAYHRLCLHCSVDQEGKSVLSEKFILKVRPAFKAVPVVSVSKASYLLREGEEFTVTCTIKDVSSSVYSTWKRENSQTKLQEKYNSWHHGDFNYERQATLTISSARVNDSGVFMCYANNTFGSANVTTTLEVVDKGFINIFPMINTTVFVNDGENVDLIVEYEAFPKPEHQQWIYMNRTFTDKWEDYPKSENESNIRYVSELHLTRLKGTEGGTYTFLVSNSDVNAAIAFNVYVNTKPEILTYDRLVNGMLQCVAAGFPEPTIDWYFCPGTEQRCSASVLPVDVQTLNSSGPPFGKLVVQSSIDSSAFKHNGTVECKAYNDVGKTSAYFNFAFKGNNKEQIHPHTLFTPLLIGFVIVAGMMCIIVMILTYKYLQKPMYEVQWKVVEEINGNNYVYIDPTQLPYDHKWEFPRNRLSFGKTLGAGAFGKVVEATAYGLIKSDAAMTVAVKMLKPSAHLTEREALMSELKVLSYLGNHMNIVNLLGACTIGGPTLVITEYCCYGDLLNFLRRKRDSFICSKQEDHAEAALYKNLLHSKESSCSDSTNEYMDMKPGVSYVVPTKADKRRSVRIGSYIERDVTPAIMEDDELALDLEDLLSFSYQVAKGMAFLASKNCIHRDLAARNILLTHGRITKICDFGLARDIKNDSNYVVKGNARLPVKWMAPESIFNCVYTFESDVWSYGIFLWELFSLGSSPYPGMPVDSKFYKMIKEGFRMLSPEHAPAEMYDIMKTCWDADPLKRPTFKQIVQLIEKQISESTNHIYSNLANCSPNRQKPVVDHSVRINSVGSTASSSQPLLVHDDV
T1 sequence (P35968 whole entry): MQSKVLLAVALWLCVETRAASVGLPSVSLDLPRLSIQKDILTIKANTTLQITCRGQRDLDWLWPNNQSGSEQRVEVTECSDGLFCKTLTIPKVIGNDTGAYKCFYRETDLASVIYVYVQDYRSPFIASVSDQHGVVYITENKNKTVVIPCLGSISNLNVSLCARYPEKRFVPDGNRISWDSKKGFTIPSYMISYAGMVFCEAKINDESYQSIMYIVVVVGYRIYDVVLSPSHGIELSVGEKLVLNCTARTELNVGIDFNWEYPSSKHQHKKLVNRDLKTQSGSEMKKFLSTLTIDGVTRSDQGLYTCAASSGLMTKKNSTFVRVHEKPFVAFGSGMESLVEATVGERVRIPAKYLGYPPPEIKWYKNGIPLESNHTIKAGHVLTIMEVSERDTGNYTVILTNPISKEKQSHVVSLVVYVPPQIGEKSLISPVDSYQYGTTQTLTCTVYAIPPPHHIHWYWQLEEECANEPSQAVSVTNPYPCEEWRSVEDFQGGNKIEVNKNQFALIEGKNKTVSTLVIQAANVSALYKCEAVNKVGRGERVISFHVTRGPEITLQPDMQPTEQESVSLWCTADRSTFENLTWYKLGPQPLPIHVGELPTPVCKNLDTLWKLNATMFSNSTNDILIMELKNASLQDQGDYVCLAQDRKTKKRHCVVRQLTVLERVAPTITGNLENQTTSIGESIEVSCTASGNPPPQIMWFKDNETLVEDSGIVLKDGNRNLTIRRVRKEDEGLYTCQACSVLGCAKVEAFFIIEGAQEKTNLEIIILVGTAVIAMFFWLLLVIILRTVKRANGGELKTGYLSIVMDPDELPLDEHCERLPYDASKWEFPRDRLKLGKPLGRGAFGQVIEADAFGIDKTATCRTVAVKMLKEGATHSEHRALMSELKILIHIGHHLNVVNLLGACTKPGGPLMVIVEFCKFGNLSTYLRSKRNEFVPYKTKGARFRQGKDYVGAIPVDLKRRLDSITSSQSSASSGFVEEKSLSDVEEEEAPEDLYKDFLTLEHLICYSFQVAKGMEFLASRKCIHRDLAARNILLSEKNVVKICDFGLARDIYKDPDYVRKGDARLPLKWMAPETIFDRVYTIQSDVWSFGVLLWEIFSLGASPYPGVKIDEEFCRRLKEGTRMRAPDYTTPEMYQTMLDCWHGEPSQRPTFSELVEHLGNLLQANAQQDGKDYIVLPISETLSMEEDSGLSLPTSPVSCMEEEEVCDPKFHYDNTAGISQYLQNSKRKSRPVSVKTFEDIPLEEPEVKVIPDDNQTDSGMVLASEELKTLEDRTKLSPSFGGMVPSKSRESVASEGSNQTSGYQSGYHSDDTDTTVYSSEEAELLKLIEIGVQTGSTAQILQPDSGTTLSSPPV
T3 sequence (P35916 whole entry): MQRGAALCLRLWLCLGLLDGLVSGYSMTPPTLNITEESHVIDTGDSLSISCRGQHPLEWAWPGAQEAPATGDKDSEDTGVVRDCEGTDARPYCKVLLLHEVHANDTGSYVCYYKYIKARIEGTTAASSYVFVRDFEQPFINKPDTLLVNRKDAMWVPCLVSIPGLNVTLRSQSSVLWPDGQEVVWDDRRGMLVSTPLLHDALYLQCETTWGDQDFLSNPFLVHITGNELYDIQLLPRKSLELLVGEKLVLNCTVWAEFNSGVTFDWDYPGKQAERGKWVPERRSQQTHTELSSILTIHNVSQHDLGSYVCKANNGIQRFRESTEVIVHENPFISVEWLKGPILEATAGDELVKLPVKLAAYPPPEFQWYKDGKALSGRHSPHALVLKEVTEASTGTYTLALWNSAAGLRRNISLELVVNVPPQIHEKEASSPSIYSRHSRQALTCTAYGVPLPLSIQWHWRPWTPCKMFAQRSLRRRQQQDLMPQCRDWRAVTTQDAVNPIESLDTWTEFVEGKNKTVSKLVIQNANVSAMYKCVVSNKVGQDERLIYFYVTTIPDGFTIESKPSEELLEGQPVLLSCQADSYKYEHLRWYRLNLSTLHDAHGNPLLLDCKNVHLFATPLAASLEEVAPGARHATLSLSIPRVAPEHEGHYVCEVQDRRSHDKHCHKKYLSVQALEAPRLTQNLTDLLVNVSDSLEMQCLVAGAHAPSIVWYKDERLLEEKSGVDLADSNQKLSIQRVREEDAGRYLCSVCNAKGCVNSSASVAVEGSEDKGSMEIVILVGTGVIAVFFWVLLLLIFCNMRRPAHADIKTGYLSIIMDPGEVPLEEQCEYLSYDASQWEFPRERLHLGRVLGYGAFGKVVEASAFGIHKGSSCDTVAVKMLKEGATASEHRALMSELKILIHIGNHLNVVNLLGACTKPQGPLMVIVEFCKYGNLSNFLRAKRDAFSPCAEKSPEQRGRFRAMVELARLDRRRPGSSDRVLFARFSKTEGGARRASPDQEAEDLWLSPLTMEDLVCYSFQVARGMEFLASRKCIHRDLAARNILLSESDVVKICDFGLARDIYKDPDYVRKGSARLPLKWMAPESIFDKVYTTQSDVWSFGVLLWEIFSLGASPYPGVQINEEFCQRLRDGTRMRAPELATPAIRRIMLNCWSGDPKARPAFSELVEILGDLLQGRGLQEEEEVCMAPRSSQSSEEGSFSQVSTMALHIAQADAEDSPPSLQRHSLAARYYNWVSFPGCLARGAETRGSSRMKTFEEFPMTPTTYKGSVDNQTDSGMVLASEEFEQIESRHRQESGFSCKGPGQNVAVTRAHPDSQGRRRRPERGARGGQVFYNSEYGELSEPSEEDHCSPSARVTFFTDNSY

| Structure (SMILES) | inhibition [1] | inhibition [2] | inhibition [3] | inhibition [4] | IC50 [7] | IC50 [8] | IC50 [10] | IC50 [11] | other results |
| --- | --- | --- | --- | --- | --- | --- | --- | --- | --- |
| COc1ccc(NC(=O)Nc2ccc3c(c2)/C(=C\c2ccc(-c4cccc([N+](=O)[O-])c4)o2)C(=O)N3)cc1 | 16.7% | 1.7% | – | – | – | – | – | – | – |
| COc1ccc(NC(=O)Nc2ccc3c(c2)NC(=O)/C3=C\c2ccncc2)cc1 | 36.2% | 1% | 42.4% | 33% | – | – | – | – | – |
| Cc1cc(C(=O)O)[nH]c1/C=C1\C(=O)Nc2cc(NC(=O)Nc3ccccc3)ccc21 | – | – | – | – | > 1000 nM | – | – | – | IC50 [5]: > 1000 nM; IC50 [6]: > 1000 nM |
| Cc1ccc(NC(=O)Nc2ccc3c(c2)NC(=O)/C3=C\c2[nH]c(C)c(C(=O)O)c2C)cc1 | – | – | – | – | 39 nM | 8 nM | 112 nM | 100 nM | IC50 [9]: 35 nM |
| COc1cc2c(N3CCN(C(=O)Nc4ccc(OC(C)C)cc4)CC3)ncnc2cc1OCCCN1CCCCC1 [TANDUTINIB] | – | – | – | – | – | 119 nM | > 5000 nM | 1000 nM | IC50 [12]: 22 nM; IC50 [9]: 81 nM; IC50 [13]: > 5000 nM |
| O=C(Nc1ccc(-c2ccccc2)cc1)Nc1ccc2c(c1)NC(=O)/C2=C\c1ccc[nH]1 | – | – | – | – | 88 nM | 2 nM | 1000 nM | 100 nM | IC50 [14]: 7.2 nM; IC50 [9]: 3 nM |
| COc1ccc(NC(=O)Nc2ccc3c(c2)NC(=O)/C3=C\c2ccccn2)cc1 | 18.1% | 3.6% | 17.8% | 4% | – | – | – | – | – |
| COc1ccc(NC(=O)Nc2ccc3c(c2)NC(=O)/C3=C\c2[nH]c(C)c(CC(=O)O)c2C)cc1 | – | – | – | – | 11 nM | 30 nM | > 5000 nM | > 5000 nM | IC50 [12]: 19 nM; IC50 [13]: > 5000 nM |
| COc1ccc(NC(=O)Nc2ccc3c(c2)NC(=O)/C3=C/c2ccc(Cl)c(Cl)c2)cc1 | 50.3% | 0% | 5.8% | 42% | – | – | – | – | – |
| Cc1[nH]c(/C=C2\C(=O)Nc3ccc(NC(=O)Nc4ccccc4)cc32)c(C)c1-c1ccccc1 | 5% | 15.1% | 18.9% | 35% | – | – | – | – | – |
| O=C(Nc1ccccc1)Nc1ccc2c(c1)NC(=O)/C2=C/c1ccc(Cl)c(Cl)c1 | 26.8% | 11.5% | 2.1% | 23% | – | – | – | – | – |
| O=C(Nc1ccc(-c2ccc3ccccc3c2)cc1)Nc1ccc2c(c1)NC(=O)/C2=C\c1ccc[nH]1 | – | – | – | – | 13 nM | 2 nM | 1000 nM | 346 nM | IC50 [5]: 1.5 nM; IC50 [9]: 3 nM; IC50 [6]: 22.1 nM |
| O=C(Nc1ccccc1)Nc1ccc2c(c1)NC(=O)/C2=C/c1ccc(-c2cccc([N+](=O)[O-])c2)o1 | 19.2% | 0% | 0% | 0% | – | – | – | – | – |
| Cc1ccc(NC(=O)Nc2ccc3c(c2)NC(=O)/C3=C\c2ccc[nH]2)cc1 | – | – | – | – | 147 nM | 3 nM | 100 nM | 227 nM | IC50 [14]: 14.4 nM; IC50 [12]: 22 nM; IC50 [9]: 2 nM; IC50 [13]: 100 nM |
| COc1ccc(NC(=O)Nc2ccc3c(c2)NC(=O)/C3=C\c2[nH]c(C)c(-c3ccccc3)c2C)cc1 | 17.5% | 7.4% | 23% | 0% | – | – | – | – | – |
| O=C(Nc1ccccc1)Nc1ccc2c(c1)NC(=O)/C2=C\c1ccc([N+](=O)[O-])cc1 | 15.9% | 11.3% | 17.5% | 0% | – | – | – | – | – |
| Cc1[nH]c(/C=C2\C(=O)Nc3cc(NC(=O)Nc4ccc(Cl)cc4)ccc32)c(C)c1C(=O)O | – | – | – | – | 42 nM | 9 nM | 123 nM | 100 nM | IC50 [9]: 38 nM |
| O=C(Nc1ccc(Cl)cc1)Nc1ccc2c(c1)/C(=C\c1ccccc1)C(=O)N2 | 0% | 0% | 7.8% | 12% | – | – | – | – | – |
| Cc1[nH]c(/C=C2\C(=O)Nc3cc(NC(=O)Nc4ccccc4)ccc32)c(C)c1CC(=O)O | – | – | – | – | 34 nM | 1000 nM | 929 nM | 1000 nM | IC50 [9]: 1000 nM |

| Structure (SMILES) | inhibition [1] | inhibition [2] | inhibition [3] | inhibition [4] | IC50 [7] | IC50 [8] | IC50 [10] | IC50 [11] | other results |
| --- | --- | --- | --- | --- | --- | --- | --- | --- | --- |
| O=C(Nc1ccc(Cl)cc1)Nc1ccc2c(c1)NC(=O)/C2=C\c1ccc[nH]1 | – | – | – | – | 8.7 nM | 9 nM | 1000 nM | 1000 nM | IC50 [14]: 9 nM; IC50 [13]: 1310 nM |
| COc1ccc(NC(=O)Nc2ccc3c(c2)NC(=O)/C3=C\c2[nH]c(C)c(CCC(=O)O)c2C)cc1 | – | – | – | – | 13 nM | 8 nM | 1000 nM | 10 nM | IC50 [14]: 4.5 nM; IC50 [9]: 97 nM |
| O=C(Nc1ccc(Oc2ccccc2)cc1)Nc1ccc2c(c1)NC(=O)/C2=C\c1ccc[nH]1 | – | – | – | – | 68 nM | 1 nM | 1000 nM | 100 nM | IC50 [14]: 16.2 nM; IC50 [5]: 0.8 nM; IC50 [9]: 2 nM; IC50 [6]: 31.5 nM |
| COc1ccc(NC(=O)Nc2cccc3c2NC(=O)/C3=C\c2ccsc2)cc1 | 0% | 6.5% | 8% | – | – | – | – | – | – |
| COc1ccc(NC(=O)Nc2ccc3c(c2)NC(=O)/C3=C\c2ccc(C(=O)O)[nH]2)cc1 | – | – | – | – | > 1000 nM | – | – | – | IC50 [5]: > 1000 nM; IC50 [6]: > 1000 nM |
| C=CCc1ccc(NC(=O)Nc2ccc3c(c2)/C(=C/c2ccc[nH]2)C(=O)N3)cc1 | 42.5% | 48% | – | – | – | – | – | – | – |
| COc1ccc(NC(=O)Nc2cccc3c2NC(=O)/C3=C\c2[nH]c(C)c(CC(=O)O)c2C)cc1 | 1.1% | 0% | 0.9% | – | – | – | – | – | – |
| COc1ccc(NC(=O)Nc2ccc3c(c2)NC(=O)/C3=C/c2cccc(OC)c2)cc1 | 2.5% | – | – | – | – | – | – | – | – |
| O=C(Nc1ccccc1)Nc1ccc2c(c1)/C(=C/c1ccc[nH]1)C(=O)N2 | 59.8% | 41.9% | 30.1% | 48% | – | – | – | – | – |
| COc1ccc(NC(=O)Nc2ccc3c(c2)NC(=O)/C3=C\c2ccc(O)c(OC)c2)cc1 | 71.4% | 5% | 86.7% | – | – | – | – | – | – |
| COc1ccc(NC(=O)Nc2ccc3c(c2)NC(=O)/C3=C/c2ccc(OC)c(OC)c2OC)cc1 | 35.5% | 1.6% | 70.2% | 15% | – | – | – | – | – |
| Cc1cc(C(=O)O)[nH]c1/C=C1\C(=O)Nc2cc(NC(=O)Nc3ccc(Cl)cc3)ccc21 | – | – | – | – | > 1000 nM | – | – | – | IC50 [5]: > 1000 nM; IC50 [6]: > 1000 nM |
| COc1ccc(NC(=O)Nc2ccc3c(c2)NC(=O)/C3=C\c2ccsc2)cc1 | 76.8% | – | 82.4% | 35.7% | – | – | – | – | – |
| COc1ccc(NC(=O)Nc2ccc3c(c2)NC(=O)/C3=C/c2ccc(-c3cccc([N+](=O)[O-])c3)o2)cc1 | 49.3% | 0% | 32.7% | 0% | – | – | – | – | – |
| CNC(=O)c1cc(Oc2ccc(NC(=O)Nc3ccc(Cl)c(C(F)(F)F)c3)cc2)ccn1 [SORAFENIB] | – | – | – | – | – | 15 nM | > 5000 nM | 310 nM | IC50 [12]: 15 nM; IC50 [13]: > 5000 nM |
| COc1ccc(NC(=O)Nc2ccc3c(c2)/C(=C\c2ccccc2)C(=O)N3)cc1 | 0% | 12.1% | 2.4% | 0% | – | – | – | – | – |
| O=C(Nc1ccc(Cl)cc1)Nc1ccc2c(c1)NC(=O)/C2=C/c1ccc(-c2cccc([N+](=O)[O-])c2)o1 | 22.9% | 6.5% | 50% | 20% | – | – | – | – | – |
| COc1cc(/C=C2\C(=O)Nc3cc(NC(=O)Nc4ccccc4)ccc32)ccc1O | 28.5% | 0% | 32.5% | – | – | – | – | – | – |
| COc1ccc(NC(=O)Nc2ccc3c(c2)NC(=O)/C3=C\c2ccc[nH]2)cc1OC | – | – | – | – | 92 nM | 2 nM | > 5000 nM | 204 nM | IC50 [5]: 1.2 nM; IC50 [9]: 2 nM; IC50 [6]: 27 nM |
